From patent US8119128B2, “Antibodies that bind urokinase-type plasminogen activator and epitopes therefor” (The Regents of the University of Colorado, a body corporate, priority 2004, dated 2012)

Columns and labels:
Type in all cases: cell-based, mouse
[1] = tested on: LPS stimulated neutrophils; assay: LPS-induced cytokine mRNA expression in neutrophils, quantitative RT-PCR; settings: LPS 10 ng/ml, protein 10 nM, 4 hours; FIG. 1-4
Description: Isolation of neutrophils. Neutrophils were purified from bone marrow cell suspensions as previously described by Abraham, et al., J Immunol 170:5644 (2003), Asehnoune, et al., J Immunol 172:2522 (2004), and Strassheim, et al., Am J Physiol Cell Physiol 286:C683 (2004). Briefly summarized, to obtain the bone marrow cell suspension, the femur and tibia of a mouse were flushed with 5 ml RPMI 1640/penicillin/streptomycin and the cells passed through a glass wool column, and pelleted by centrifugation at 1000 rpm for 10 minutes. […] Neutrophil purity, as determined by Wright's stained cytospin preparations, was greater than 97%. Cell viability, as determined by trypan blue exclusion, was consistently greater than 98%.
(§1) Real time quantitative RT-PCR. Quantitative RT-PCR to measure neutrophil cytokine expression was performed as previously described by Abraham, et al., J Immunol 170:5644 (2003), and Park, et al., Am J Physiol Cell Physiol 284:C870 (2003). […] For each mRNA detected, a fluorogenic probe and two primers (forward and reverse) for PCR were synthesized (Applied Biosystems, Foster City, Calif.). […]
All reagents used in the one step RT-PCR reactions were purchased from Applied Biosystems. […] The amount of cytokine mRNA was determined from a standard curve with 10 fold dilutions of known amounts of target RNA for each primer and probe set. […]

integrins = assay: RGD or RGE peptide added to neutrophil cultures containing uPA and LPS; settings: LPS 10 ng/ml, scuPA 10 nM, peptide 50 μM, 4 hours; FIG. 7
Description: (§2) Isolation of neutrophils. Neutrophils were purified from bone marrow cell suspensions as previously described by Abraham, et al., J Immunol 170:5644 (2003), Asehnoune, et al., J Immunol 172:2522 (2004), and Strassheim, et al., Am J Physiol Cell Physiol 286:C683 (2004). Briefly summarized, to obtain the bone marrow cell suspension, the femur and tibia of a mouse were flushed with 5 ml RPMI 1640/penicillin/streptomycin and the cells passed through a glass wool column, and pelleted by centrifugation at 1000 rpm for 10 minutes. The cell pellets were resuspended in 0.3% FCS/PBS and then incubated with 20 μl of primary antibodies specific for cell surface markers F4/80, CD4, CD45R, CD5, and TER19 for 15 minutes, rotating at 4° C. This custom cocktail (Stem Cell Technologies, Vancouver, British Columbia) is specific for T and B cells, RBC, monocytes and macrophages. Anti-biotin tetrameric antibody complexes (100 μl) were then added, and the cells incubated for 15 minutes, rotating at 4° C. Following this, 60 μl of colloidal magnetic dextran iron particles was added to the suspension and incubated for 15 minutes, rotating at 4° C. The entire cell suspension was then placed into a column, surrounded by a magnet. The T cells, B cells, RBC, monocytes and macrophages were captured in the column, allowing the neutrophils to pass through by negative selection methods. Neutrophil purity, as determined by Wright's stained cytospin preparations, was greater than 97%. Cell viability, as determined by trypan blue exclusion, was consistently greater than 98%.
as §1

[2] = tested on: LPS stimulated neutrophils; assay: Cytokine ELISA of culture supernatants of LPS stimulated neutrophils; settings: LPS 10 ng/ml, protein 10 nM, 4 hours, FIG. 5
Description: as §2, with “Anti-biotin tetrameric antibody complexes (100 μl) were then added, and the cells incubated for 15 minutes, rotating at 4° C. Following this, 60 μl of colloidal magnetic dextran iron particles was added to the suspension and incubated for 15 minutes, rotating at 4° C. The entire cell suspension was then placed into a column, surrounded by a magnet. The T cells, B cells, RBC, monocytes and macrophages were captured in the column, allowing the neutrophils to pass through by negative selection methods.” left out
Cytokine ELISA. Immunoreactive TNF-α, IL-1β, and MIP-2 were quantified using commercially available ELISA kits (R&D Systems, Minneapolis, Minn.), according to manufacturer's instructions and as described previously by Yum, et al., J Immunol 167:6601 (2001). […]

Row | Molecule | enhancement of LPS-induced cytokine mRNA expression (IL-1β, TNF-α, MIP-2) compared with scuPA [1] | increased production of IL-1β, TNF-α, and MIP-2 produced by co-culture of LPS stimulated neutrophils with scuPA (integrins) | uPA-induced potentiation of neutrophil responses (integrins) | neutrophil production (secretion) of IL-1β, TNF-α, and MIP-2 [2]
1 | ATF: amino terminal fragment of uPA, which contains the uPA GFD and KD | to the same extent as did scuPA | – | – | –
2 | RGD: RGD peptide that blocks interactions with integrins | – | prevented | blocked | –
3 | RGE: RGE peptide that serves as a control | – | – | not | –
4 | KD: purified kringle domain of uPA (amino acids 47-135), SEQ ID NO:2 epitope (protein) SKTCYEGNGHFYRGKASTDTMGRPCLPWNSATVLQQTYHAHRSDALQLGLGKHNYCRNPDNRRRPWCYVQVGLKPLVQECMVHDCA | to the same extent or even a greater extent than did scuPA | – | – | to the same extent as did intact scuPA
